In assay [1] the test system is highly malignant+SA mouse mammary epithelial cell line. As to the kind of experiment: MTT antiproliferative assay, +SA mouse mammary epithelial cells. Format: cell-based. Here is the method: The antiproliferative effects of Compounds 1-21 were tested using 3-(4,5-dimethylthiazol-2-yl)-2,5-diphenyl tetrasolium bromide (MTT) colorimetric assay utilizing cultures of the highly malignant+SA mouse mammary epithelial cell line maintained on serum-free media and containing 10 ng/mL epidermal growth factor (EGF) and 10 μg/mL insulin as mitogens using 24-well culture plates (6 wells/group) by MTT assay.
Cells were then divided into different treatment groups and given fresh control or treatment media every day. In growth inhibition studies, (IC50), +SA cells were treated with various doses of individual tocotrienol or tocotrienol derivatives for 4 days and then the viable cell number was determined using the MTT assay. Optical density of each sample was read at 570 nm on a microplate reader (SpectraCount, Packard BioScience Company, Meriden, Conn.) against a blank prepared from cell-free cultures. The number of cells/well was calculated against a standard curve prepared by plating various concentrations of cells, as determined by hemocytometer, at the start of each experiment. See McIntyre referenced above.
(§1) For each of the assays performed the compounds were dissolved in aqueous culture media by binding the compounds with bovine serum albumin (BSA).
(§2) An amount of each compound appropriate for the desired final compound concentration was placed in a 1.5 mL screw top glass vial and dissolved in 100 μL of 100% ethanol. Once dissolved, this ethanol/compound solution was added to a small volume of sterile 10% BSA in water and incubated overnight at 37° C. […] Ethanol was added to all treatment media such that the final ethanol concentration was the same in all treatment groups within a given experiment and was always less than 0.1%. Although the examples provided have been described in conjunction with specified amounts of ethanol and other compounds it should be understood that the invention is applicable to embodiments not having those limited concentration.
(In general: Formazan colour is commonly taken as a measure of viable cells.)

The subject of assay [2] is ER-positive human breast cancer cells MCF7. Kind of assay: MTT antiproliferative assay, MCF7 cells. Format: cell-based. Conditions: for IC50: Homo sapiens. As to the method: as §1, §2
(§3) The cell growth of MCF7 (Example 24) and MDA-MB-231 (Example 25) cell lines was measured using the MTT assay procedures described above and an MTT assay kit (TACS™, Trevogen®, Inc., Gaithersburg, Md.). After passing the cells for 3-4 times, growing cells were incubated in a 96-well plate at a density of 8×10^3 cells per well, and allowed to attach for 24 hours. Complete growth medium was then replaced with 100 μL of RPMI serum free medium (GIBCO-Invitrogen, NY) containing various doses (20, 10, 5, 2 μM) of the tested compound and the culture continued at 37° C. under 5% CO2. After 96 hours, the incubated cells were treated with MTT solution (10 μL/well) at 37° C. for 4 hours. The color reaction was stopped by the addition of solubilization/stop solution (100 μL/well). The cells continued to be incubated at 37° C. to completely dissolve the formazan product. Absorbance of the samples was determined at 570 nm with an ELISA plate reader (BioTek, VT). Absorbance readings were converted to estimated cell numbers based on a standard curve prepared by plating various concentration of cells, as determined by hemocytometer, and measuring the absorbance of those cells at the start of each experiment. The IC50 value of each compound was calculated using nonlinear regression (curve fit) of log concentration versus the number of cells/well implemented using GraphPad Prism 5.0 program. The procedure was identical for both human breast cancer cell lines MCF7 and MDA-MB-231.

In assay [3] the test system is ER-negative human breast cancer cells MDA-MB-231. As to the kind of experiment: MTT antiproliferative assay, MDA-MB-231 cells. The assay is classed as cell-based. Conditions: for IC50: Homo sapiens; for antiproliferative activity (in words): MDA-MB-231. Here is the method: as §1, §2, §3
Assay [4] relates to highly metastatic breast cancer cell line MDA-MB-231. Kind of assay: BME Cell Invasion Assay (Boyden chamber, calcein-AM). Format: cell-based, human. Conditions: MDA-MB-231, 5 μM. Here is the method:
Anti-Invasion Assays were performed to measure the anti-invasive properties of Compounds 1-21 using a 96 well basement membrane extract “BME” Cell Invasion Assay (Cultrex®, Trevogen, Catalog# 3455-096-K) with the highly metastatic breast cancer cell line MDA-MB-231. This assay employs a simplified Boyden Chamber design with a polyethylene terephthalate membrane (8 μm). Detection of cell invasion is quantified using calcein-AM. Cells internalize calcein-AM and intracellular esterases cleave the acetomethylester moiety to generate free calcein. Free calcein fluoresces brightly, and this fluorescence may be used to quantify the number of cells that have invaded across BME. (See Tamilarasan and Borghesani, referenced above)
About […] of basement membrane extract (BME, 1×) coat was added per well. After overnight incubation at 37° C. in a 5% CO2 incubator, 50,000/50 μL of MDA-MB-231 cells in serum free RPMI medium were added to the top chamber of each well, which contained the tested compound at a treatment concentration of 5 μM. About 150 μL of RPMI medium was added to the lower chamber, which contained 10% fetal bovine serum, penicillin/streptomycin, and fibronectin (1 μL/mL) and N-formyl-met-leu-phe (10 nM) as chemoattractants. Cells were allowed to migrate to the lower chamber at 37° C. in a CO2 incubator. After 24 h, the top and bottom chambers were aspirated and washed with a washing buffer solution. About 100 μL of cell dissociation solution/Calcein-AM solution was added to the bottom chamber and incubated for 1 hour at 37° C. in a CO2 incubator. The cells internalized calcein-AM, and the intracellular esterases cleaved the acetomethylester (AM) moiety to generate free calcein. Fluorescence of the samples was determined at 485 nm excitation; 520 nm emissions were measured using a plate reader (BioTek, VT). The numbers of cells that invaded through the BME coat were calculated using a standard curve.
Differences among the various treatment groups were determined by analysis of variance (ANOVA) followed by Dunnett's t-test. Differences were considered to be statistically significant at a value of <0.05, as compared to vehicle treated controls.

Where [5] appears, read: MCF7, 96 h, read-out: MCF7 IC50 μM.
Setting [6] is: MDA-MB-231, 96 h, read-out: MDA-MB-231 IC50 μM.

We go through three compounds from patent publication US8268786B2, “Anti-cancer tocotrienol analogues and associated methods” (First Tech International Limited, priority 2009, dated 2012).

SMILES strings stand for the structures. Like-named read-outs stand apart in the source and are kept apart here.

As for `CC(C)=CCC/C(C)=C/CC/C(C)=C/CC[C@]1(C)CCc2cc(OC(=O)NS(=O)(=O)c3ccc(C)cc3)c(C)c(C)c2O1` [Compound 8, (R)-2,7,8-trimethyl-2-((3E,7E)-4,8,12-trimethyltrideca-3,7,11-trienyl)chroman-6-yl tosylcarbamate], the “activity relative to parent γ-tocotrienol (2)” value in assay [1] (+SA cells, versus Compound 2) is listed as approximately 2 fold. Also, the IC50 (commonly the concentration needed to halve the response being measured) in assay [1] (Mus musculus, +SA cell, 96 h) is 2 µM; in assay [2] (setting [5]) it was 5.1 µM; in assay [2] (MCF7, read-out: IC50 values (range)), 5 to 10 µM; in assay [3] (setting [6]), more than 10 µM. In assay [2] (MCF7, 4 and 10 versus Compound 1, 8 versus Compound 2), the “potency relative to parent natural tocotrienol” value is on record as approximately 3 fold.

As to `CC(C)=CCC/C(C)=C/CC/C(C)=C/CC[C@]1(C)CCc2cc(OC(=O)NS(=O)(=O)c3ccc(C)cc3)cc(C)c2O1` [Compound 9, (R)-2,8-dimethyl-2-((3E,7E)-4,8,12-trimethyltrideca-3,7,11-trienyl)chroman-6-yl tosylcarbamate], the “antiproliferative activity (in words)” value in assay [1] (+SA cells) is recorded as “activity better than that of its parent tocotrienol”; in assay [3] it was “improved activities”. In addition, the 50% inhibitory concentration (IC50) is more than 10 µM in assay [2] (setting [5]); 6.6 µM in assay [3] (setting [6]); 5 to 10 µM in assay [3] (MDA-MB-231, read-out: IC50 (range)). Besides, in assay [4], the “anti-invasive activity (in words)” value was “more active than their natural tocotrienol parent compounds”.

For `CC(C)=CCC/C(C)=C/CC/C(C)=C/CC[C@]1(C)CCc2cc(OC(=O)NCc3ccccc3)c(C)c(C)c2O1` [Compound 17, (R)-2,7,8-trimethyl-2-((3E,7E)-4,8,12-trimethyltrideca-3,7,11-trienyl)chroman-6-yl benzylcarbamate], the half-inhibitory concentration (IC50) in assay [2] (setting [5]) and in assay [3] (setting [6]) was more than 10 µM in each case. Besides, in assay [3], the “antiproliferative activity (in words)” value is given as “improved activities”. In assay [4], the “anti-invasive activity (in words)” value is listed as “more active than their natural tocotrienol parent compounds”.
